Patent US20080089884A1, “Compositions and methods for the modulation of detrusor activity” (priority 2006, published 2008)

Experiments:
urinary retention = conditions: randomized placebo controlled trials; cited from earlier work
[1] = tested on: primary rat detrusor muscle cultures; assay type: cell-based; conditions: 1 μg/ml, bladder smooth muscle cells, data not shown
Method: Tissue culture. Primary bladder muscle cultures were derived from newborn Sprague-Daley rats (Charles River; Wilmington, Mass.). The bladders were harvested, minced and added to 3 ml dissociation solution containing 0.5 mg/ml collagenase, 0.5 mg/ml elastase, 2 μg/ml DNAse (Worthington, Lakewood, N.J.) and 1 mg/ml soybean trypsin inhibitor (Gibco, Carlsbad, Calif.). The tissue was triturated at 15 minute intervals for 45 minutes using fire polished pasteur pipets. The cell solution was filtered through a 40 μm cell strainer and spun at 1000 rpm for 5 minutes. […] The cell number was determined and cells were plated at a density of 25,000 cells/cm2 in poly-L-lysine coated (P-6282, Sigma) 12-well plates (#3513, Corning, Corning, N.Y.) for biochemical and flow cytometry studies and on plastic 8-well chamber slides (#354108, BD Bioscience, San Jose, Calif.) for immunohistochemistry or TUNEL staining. […]
Apoptosis detection. […] Following treatment with rMIF, cells were analyzed using a kit (PF032, Calbiochem, San. Diego, Calif.) to separate apoptotic and necrotic cells on flow cytometry. […] Cells were analyzed using a Becton Dickenson FACS caliber flow cytometer with collection and analysis of data performed using Becton Dickinson CELLQuest software. TUNEL staining was detected using a kit (Roche) with DAB microscopy of cells grown 5-7 days in 8-well chamber slides. […]

[2] = tested on: incontinence due to detrusor over activity with DHIC; conditions: cited from earlier work
[3] = tested on: bladder function, men with BPH; conditions: cited from earlier work
[4] = tested on: MIF protein release from rat bladder muscle culture cells; test: MIF ELISA of supernatants from rat bladder muscle cultures; assay type: cell-based; conditions: TNF-α 50 ng/ml for 24 hours, 3 separate cultures
Method: Tissue culture. Primary bladder muscle cultures were derived from newborn Sprague-Daley rats (Charles River; Wilmington, Mass.). The bladders were harvested, minced and added to 3 ml dissociation solution containing 0.5 mg/ml collagenase, 0.5 mg/ml elastase, 2 μg/ml DNAse (Worthington, Lakewood, N.J.) and 1 mg/ml soybean trypsin inhibitor (Gibco, Carlsbad, Calif.). The tissue was triturated at 15 minute intervals for 45 minutes using fire polished pasteur pipets. The cell solution was filtered through a 40 μm cell strainer and spun at 1000 rpm for 5 minutes. The supernatant was aspirated and cells resuspended in DMEM-F/12 medium containing 1% FBS, 1% N-2 supplement and 1% Penicillin/Streptomycin (Gibco). The cell number was determined and cells were plated at a density of 25,000 cells/cm2 in poly-L-lysine coated (P-6282, Sigma) 12-well plates (#3513, Corning, Corning, N.Y.) for biochemical and flow cytometry studies and on plastic 8-well chamber slides (#354108, BD Bioscience, San Jose, Calif.) for immunohistochemistry or TUNEL staining. Cells were maintained at 37° C. and 5% CO2 in a humidified chamber. The presence of 1% FBS was required for the success of initial plating. […]
MIF ELISA. […] MIF concentrations were calculated by extrapolation from a quadratic standard curve using human rMIF (range: 0-12 ng/ml, sensitivity: 150 pg/ml).

[5] = tested on: post-void residual in ambulatory older women; conditions: estrogen users, 204 ambulatory women, mean age 79 years; cited from earlier work

CC(C[N+](C)(C)C)OC(N)=O (stereo not drawn) [Bethanechol chloride]
clinically-relevant outcomes (urinary retention): does not improve clinically-relevant outcomes

C[C@@H]1C[C@@H]([C@H](O)CC2CC(=O)NC(=O)C2)C(=O)[C@@H](C)C1 [cyclohexamide]
apoptosis or necrosis induced by cyclohexamide alone [1]: does not induce apoptosis or necrosis

CCN(CC)CC#CCOC(=O)C(O)(c1ccccc1)C1CCCCC1 (stereo not drawn) [oxybutynin]
decrease in daily incontinence frequency ([2]; intention-to-treat, 64 subjects on immediate-release oxybutynin started at 2.5 mg and titrated): 68%
evaluable subjects with no end-study leakage, impaired contractility ([2]; on oxybutynin, 9/19 subjects): 47%
evaluable subjects with no end-study leakage, normal contractility ([2]; on oxybutynin, 25/35 subjects): 71%
subjects with no incontinence episodes on the end-study bladder diary ([2]; subjects randomized to oxybutynin): 34/64

CC(C)[N+](C)(CCOC(=O)C1c2ccccc2Oc2ccccc21)C(C)C [propantheline]
acute urinary retention [3]: 5/6

TNF-α
increase in MIF protein levels detectable in the supernatant [4]: approximately 30%

estrogen
mean PVR [5]: 39.3 mL
